Laboratory results taken from ChEMBL document CHEMBL3763119, “Metal-based biologically active azoles and β-lactams derived from sulfa drugs” (Bioorg Med Chem, 2016).

How the values were obtained:
Staphylococcus aureus [1] = experiment: Antibacterial activity against Staphylococcus aureus at 15 ug/ml by disc diffusion method; assay type: functional; conditions: read-out: DIZ
Escherichia coli [2] = experiment: Antibacterial activity against Escherichia coli at 15 ug/ml by disc diffusion method; assay type: functional; conditions: read-out: DIZ
Staphylococcus aureus [3] = experiment: Antibacterial activity against Staphylococcus aureus at 10 ug/ml by disc diffusion method; assay type: functional; conditions: read-out: DIZ
Escherichia coli [4] = experiment: Antibacterial activity against Escherichia coli at 10 ug/ml by disc diffusion method; assay type: functional; conditions: read-out: DIZ
Proteus sp. [5] = experiment: Antibacterial activity against Proteus sp. at 100 ug/ml by disc diffusion method; assay type: functional; conditions: Proteus sp. (in: enterobacteria); read-out: DIZ
Proteus sp. [6] = experiment: Antibacterial activity against Proteus sp. at 10 ug/ml by disc diffusion method; assay type: functional; conditions: Proteus sp. (in: enterobacteria); read-out: DIZ
Escherichia coli [7] = experiment: Antibacterial activity against Escherichia coli at 100 ug/ml by disc diffusion method; assay type: functional; conditions: read-out: DIZ
Pseudomonas aeruginosa [8] = experiment: Antibacterial activity against Pseudomonas aeruginosa at 100 ug/ml by disc diffusion method; assay type: functional; conditions: read-out: DIZ
Escherichia coli [9] = experiment: Antibacterial activity against Escherichia coli at 50 ug/ml by disc diffusion method; assay type: functional; conditions: read-out: DIZ
Proteus sp. [10] = experiment: Antibacterial activity against Proteus sp. at 50 ug/ml by disc diffusion method; assay type: functional; conditions: Proteus sp. (in: enterobacteria); read-out: DIZ
Staphylococcus aureus [11] = experiment: Antibacterial activity against Staphylococcus aureus at 100 ug/ml by disc diffusion method; assay type: functional; conditions: read-out: DIZ
Pseudomonas aeruginosa [12] = experiment: Antibacterial activity against Pseudomonas aeruginosa at 10 ug/ml by disc diffusion method; assay type: functional; conditions: read-out: DIZ
Staphylococcus aureus [13] = experiment: Antibacterial activity against Staphylococcus aureus at 50 ug/ml by disc diffusion method; assay type: functional; conditions: read-out: DIZ
Pseudomonas aeruginosa [14] = experiment: Antibacterial activity against Pseudomonas aeruginosa at 50 ug/ml by disc diffusion method; assay type: functional; conditions: read-out: DIZ
Staphylococcus aureus [15] = experiment: Antibacterial activity against Staphylococcus aureus at 1 ug/ml by disc diffusion method; assay type: functional; conditions: read-out: DIZ
Proteus sp. [16] = experiment: Antibacterial activity against Proteus sp. at 30 ug/ml by disc diffusion method; assay type: functional; conditions: Proteus sp. (in: enterobacteria); read-out: DIZ
Staphylococcus aureus [17] = experiment: Antibacterial activity against Staphylococcus aureus at 30 ug/ml by disc diffusion method; assay type: functional; conditions: read-out: DIZ
Pseudomonas aeruginosa [18] = experiment: Antibacterial activity against Pseudomonas aeruginosa at 30 ug/ml by disc diffusion method; assay type: functional; conditions: read-out: DIZ
Escherichia coli [19] = experiment: Antibacterial activity against Escherichia coli at 30 ug/ml by disc diffusion method; assay type: functional; conditions: read-out: DIZ
[20] = Solubility of the compound in dioxane; assay type: physicochemical
Escherichia coli [21] = experiment: Antibacterial activity against Escherichia coli at 1 ug/ml by disc diffusion method; assay type: functional; conditions: read-out: DIZ
[22] = Solubility of the compound in ethanol; assay type: physicochemical
[23] = Solubility of the compound in THF; assay type: physicochemical
Proteus sp. [24] = experiment: Antibacterial activity against Proteus sp. at 1 ug/ml by disc diffusion method; assay type: functional; conditions: Proteus sp. (in: enterobacteria); read-out: DIZ
Pseudomonas aeruginosa [25] = experiment: Antibacterial activity against Pseudomonas aeruginosa at 1 ug/ml by disc diffusion method; assay type: functional; conditions: read-out: DIZ
Escherichia coli [26] = experiment: Antibacterial activity against Escherichia coli at 5 ug/ml by disc diffusion method; conditions: read-out: DIZ
Staphylococcus aureus [27] = experiment: Antibacterial activity against Staphylococcus aureus at 5 ug/ml by disc diffusion method; conditions: read-out: DIZ
Pseudomonas aeruginosa [28] = experiment: Antibacterial activity against Pseudomonas aeruginosa at 5 ug/ml by disc diffusion method; conditions: read-out: DIZ

solubility [20] | solubility [22] | solubility [23] | Structure (SMILES) | zone of inhibition at 10 µg/mL (Staphylococcus aureus [3]) [mm] | zone of inhibition at 10 µg/mL (Escherichia coli [4]) [mm] | zone of inhibition at 100 µg/mL (Proteus sp. [5]) [mm] | zone of inhibition at 10 µg/mL (Proteus sp. [6]) [mm] | zone of inhibition at 100 µg/mL (Escherichia coli [7]) [mm] | zone of inhibition at 100 µg/mL (Pseudomonas aeruginosa [8]) [mm] | zone of inhibition at 50 µg/mL (Escherichia coli [9]) [mm] | zone of inhibition at 50 µg/mL (Proteus sp. [10]) [mm] | zone of inhibition at 100 µg/mL (Staphylococcus aureus [11]) [mm] | zone of inhibition at 10 µg/mL (Pseudomonas aeruginosa [12]) [mm] | zone of inhibition at 50 µg/mL (Staphylococcus aureus [13]) [mm] | zone of inhibition at 50 µg/mL (Pseudomonas aeruginosa [14]) [mm] | zone of inhibition at 1 µg/mL (Staphylococcus aureus [15]) [mm] | zone of inhibition at 1 µg/mL (Escherichia coli [21]) [mm] | further results
– | – | – | CC[C@H]1OC(=O)[C@H](C)[C@@H](O[C@H]2C[C@@](C)(OC)[C@@H](O)[C@H](C)O2)[C@H](C)[C@@H](O[C@@H]2O[C@H](C)C[C@H](N(C)C)[C@H]2O)[C@](C)(OC)C[C@@H](C)C(=O)[C@H](C)[C@@H](O)[C@]1(C)O [CLARITHROMYCIN] | – | – | – | – | – | – | – | – | – | – | – | – | – | – | zone of inhibition at 15 µg/mL (Staphylococcus aureus [1]): 23 mm; zone of inhibition at 15 µg/mL (Escherichia coli [2]): 16 mm
– | – | – | Cc1cc(NS(=O)(=O)c2ccc(N)cc2)no1 [SULFAMETHOXAZOLE] | 6 | 8 | 9 | 7 | 12 | 10 | 10 | 8 | 9 | 7 | 8 | 8 | – | – | –
– | – | – | Nc1ccc(S(=O)(=O)Nc2nccs2)cc1 [SULFATHIAZOLE] | 10 | 7 | 11 | 8 | 11 | 9 | 10 | 10 | 15 | 7 | 13 | 8 | 6 | – | –
– | – | – | C[C@H]1[C@H](NC(=O)/C(=N\OC(C)(C)C(=O)O)c2csc(N)n2)C(=O)N1S(=O)(=O)O [AZTREONAM] | – | – | – | – | – | – | – | – | – | – | – | – | – | – | zone of inhibition at 30 µg/mL (Proteus sp. [16]): 24 mm
– | – | – | CO[C@@H]1[C@@H](OC(N)=O)[C@@H](O)[C@H](Oc2ccc3c(O)c(NC(=O)c4ccc(O)c(CC=C(C)C)c4)c(=O)oc3c2C)OC1(C)C [NOVOBIOCIN] | – | – | – | – | – | – | – | – | – | – | – | – | – | – | zone of inhibition at 30 µg/mL (Staphylococcus aureus [17]): 24 mm; zone of inhibition at 30 µg/mL (Pseudomonas aeruginosa [18]): 14 mm; zone of inhibition at 30 µg/mL (Escherichia coli [19]): 7 mm; zone of inhibition at 30 µg/mL (Proteus sp. [16]): 20 mm
soluble | soluble | soluble | COc1cccc(/C=N/c2ccc(S(=O)(=O)Nc3nccs3)cc2)c1O | 9 | 9 | 9 | 7 | 15 | 13 | 12 | 8 | 14 | 8 | 12 | 10 | 6 | 6 | –
soluble | soluble | soluble | COc1cccc(C2C(Cl)C(=O)N2c2ccc(S(=O)(=O)Nc3nccs3)cc2)c1O (configuration not stated) | 8 | 8 | 9 | 7 | 13 | 11 | 12 | 8 | 16 | 6 | 12 | 9 | 6 | 6 | –
soluble | soluble | soluble | COc1cccc(C2C(Cl)C(=O)N2c2ccc(S(=O)(=O)Nc3cc(C)on3)cc2)c1O (configuration not stated) | 9 | 9 | 12 | 10 | 14 | 13 | 13 | 12 | 16 | 9 | 11 | 11 | 7 | 7 | zone of inhibition at 1 µg/mL (Proteus sp. [24]): 6 mm; zone of inhibition at 1 µg/mL (Pseudomonas aeruginosa [25]): 6 mm
– | – | – | O=C(O)c1cn(C2CC2)c2cc(N3CCNCC3)c(F)cc2c1=O [CIPROFLOXACIN] | – | – | – | – | – | – | – | – | – | – | – | – | – | – | zone of inhibition at 5 µg/mL (Escherichia coli [26]): 28 mm; zone of inhibition at 5 µg/mL (Staphylococcus aureus [27]): 20 mm; zone of inhibition at 5 µg/mL (Pseudomonas aeruginosa [28]): 17 mm
soluble | soluble | soluble | COc1cccc(/C=N/c2ccc(S(=O)(=O)Nc3cc(C)on3)cc2)c1O | 8 | 8 | 15 | 11 | 14 | 15 | 11 | 14 | 12 | 10 | 10 | 11 | 6 | 6 | zone of inhibition at 1 µg/mL (Proteus sp. [24]): 6 mm; zone of inhibition at 1 µg/mL (Pseudomonas aeruginosa [25]): 6 mm
